US20030023104A1, “Therapeutic compound - fatty acid conjugates” (COMMONWEALTH SCIENTIFIC AND INDUSTRIAL RESEARCH ORGANISATION, priority 1995, published 2003)
Several values for one entry are separate records, joined by “and”; a condition that tells them apart may be missing. Identical values can stand only once. Like-named read-outs stand apart in the source and are kept apart here.

What was measured:
HIV-I U4550 = test: Anti HIV activity, Ag gp120 production in infected JM cells; assay type: cell-based
Procedure: (§1) The anti-HIV activities of AZT-Suc-GTP1 and AZT-Suc-GTP2 were also tested. Infected cells were incubated for 5 days with compound. Compounds were dissolved in DMSO and 5-fold dilutions were used. The following parameters were measured: syncytia formation, virus antigen gp120 production, cell survival. Cytotoxicity is also measured in uninfected cells.
(§2) JM (semi mature human T-cell from lymphoblastoid leukemia) infected with HIV-I U4550
(§3) EC50=concentration which reduces Ag gp120by 50% in infected cell cultures.

HIV-I MN = test: Anti HIV activity, Ag gp120 production in infected C8166 cells; assay type: cell-based
Procedure: as §1
(§4) C8166 (human T-lymphoblastoid cells) infected with HIV-I MN
as §3

[1] = test system: JM (semi mature human T-cell from lymphoblastoid leukemia); test: Cell growth (cytotoxicity) in JM cells; assay type: cell-based
Procedure: as §1, §2
(§5) IC50=concentration of drug which reduces cell growth by 50%.

[2] = test system: C8166 (human T-lymphoblastoid cells); test: Cell growth (cytotoxicity) in C8166 cells; assay type: cell-based
Procedure: as §1, §4, §5

[3] = test system: JURKAT cells (acute T cell human leukemia)
Procedure: The cytotoxicity of chlorambucil and chlorambucil fatty acid conjugates (CGTP1. P2 and P3) were tested in vitro with JURKAT cells (acute T cell human leukemia). Cells were incubated with drug and viability was determined by a colourmetric proliferation test. Cytotoxicity towards other cells lines was also tested (PC3 human prostate cancer cells, B16 mouse melanoma cells and human peripheral blood mononuclear cells).
JURKAT cells were seeded into 96-well plates at a density of 1.6×10^4 cells/200 μl complete RPMI ± drug and cultured for 64 h. A 1:3 split of confluent PC3 cells in a 75 cm^2 flask were seeded into a 96-well plate and cultured for 48 h in complete RPMI. Media was removed and complete RPMI ± drug was added to wells. Cells were further cultured for 72 h.
i) Ethanol. Drugs were dissolved in ethanol and added to culture media. The final concentration of ethanol in media was no greater than 1% (v/v). This delivery was used for experiments with JURKAT, PBMC, PC3 and B16 cell types.
ii) Coating of plates. Drugs were dissolved in ethanol and aliquots (up to 40 μl) were added to 90% (v/v) isopropanol. Solution (50 μl) was then added to wells of a 96-well plate and the solvent evaporated by heating at 37° C. Media ± cells was then added. This delivery was used for some experiments with JURKAT cells.
Viability was determined using the MTS assay (CellTiter 96TM AQueous Non-Radioactive Cell Proliferation Assay) from Promega. Reagent (40 μl) was added to each well and absorbance values at 490 nm were determined 1 to 4 h later. The effect of drug on cell viability was compared to cultures set up containing no drug (100% viability). Wells containing no cells were used to control for background absorbance (0% viability). Each concentration was tested in at least 3 wells. Concentrations necessary to cause a 50% inhibition of cellular growth of control cells (IC50) were calculated by linear regression.

[4] = test system: PC3 human prostate cancer cells; test: Cytotoxicity of chlorambucil and conjugates, MTS assay, PC3; assay type: cell-based; conditions: for IC50: PC3, ethanol delivery, 72 h
Procedure: Cells were further cultured for 72 h.
(§6) Each concentration was tested in at least 3 wells.

B16 mouse melanoma cells = test: Cytotoxicity of chlorambucil and conjugates, MTS assay, B16; assay type: cell-based; conditions: for IC50: B16, ethanol delivery, 48 h
Procedure: Media was removed and complete EMEM ± drug was added to wells. Cells were further cultured for 48 h.
as §6

[5] = test system: human peripheral blood mononuclear cells; test: Cytotoxicity of chlorambucil and conjugates, MTS assay, PBMC; assay type: cell-based; conditions: for IC50: ethanol delivery
Procedure: Human peripheral blood mononuclear cells (PBMC) were isolated from one healthy donor by centrifugation on Ficoll-Paque (Pharmacia). Cells were seeded into a 96-well plates at a density of 2×10^5 cells/200 μl complete RPMI ± drug and cultured for 40 h.
as §6

UVB induced oedema = test: UVB erythema assay (net skin fold thickness); assay type: in vivo, Skh-1 hairless albino female mice
[6] = test system: UVB induced immunosuppression; test: Contact Hypersensitivity Assay (oxazolone, net ear swelling); assay type: in vivo, mice; conditions: 0.5% (0.5 mg/mouse) painted within 10 minutes post UVB exposure, total 3 MED UVB
Excerpt: The assay used the method described in “Current Protocols in Immunology” (Vol 1, Section 4.2 Eds Coligan et al. (1991) NIH). The sensitiser was Oxazalone. Briefly this method was as follows:
UVB Radiation. Mice were irradiated with a single FL40SE UVB fluorescent tube (Oliphant) in a reflective batten, providing […] UVB radiation measured at target distance using an International Light IL1700 radiometer with a UVB detector sensitive between 250-315 nm. The mice received 0.1179 J/cm^2 UVB radiation, constituting 1 minimal erythemal dose (MED) as previously ascertained, on each of 3 consecutive days, being exposed unrestrained with the wire cage tops removed.
Induction of Systemic Contact Hypersensitivity. Test mice were exposed on the dorsum to 1 MED UVB radiation (or no UVB radiation) at the same hour on days 1, 2 and 3. On days 8 and 9, the mice (irradiated and non-irradiated) were sensitized by topical application to the abdominal skin of 0.1 ml of 3% (w/v) oxazolone (Sigma Chemical Co., St Louis, Mo.) freshly prepared in ethanol. On day 15, the pre-challenge ear thickness was measured using the spring micrometer, and the mice were then challenged by the application of 5 ul freshly prepared 3% oxazolone/ethanol solution to both surfaces of each pinna. Ear thickness was again measured repeatedly between 16-24 hours, and the maximum ear thickness was recorded. The net ear swelling was calculated as the difference between the average pre-challenge and the average post-challenge ear thickness for each treatment group. Statistical significance of the differences in net ear swelling between treatment groups was assessed with Student's t test.
The mice were painted with vehicle, 0.5 mg/mouse HC, 0.5 mg/mouse HC-Suc-GTP2. 1 mg/mouse 17-b HC-Suc-GTP3 or 17-b HC within 10 minutes post UVB exposure. A total of 3 MED of unshielded UVB was used. (Table 3)

B16 melanoma cells = test: Tumour Cytotoxicity Model (B16 melanoma in C57 mice); assay type: in vivo, C57 black mice; set-up: Mean (standard error) of B16 tumour volume adjusted for the variation in initial volume: scale not given here; conditions: for Mean (standard error) of B16 tumour volume adjusted for the variation in initial volume: statistically modified tumour volume; for B16 Tumour Volume: individual mice
Procedure: Groups of C57 black mice were given an initiation dose of 2×10^5 B16 melanoma cells as an intradermal injection. The cells were suspended in MEM without serum. The abdomen was clipped and 100 μl of cells + MEM was injected. […] The tumours were measured with a micrometer and photographed just prior to the injection of drug (day 8-10).
The cytotoxic drugs and their fatty acid conjugates were dissolved or suspended in 4:1 soy bean oil:ethyl oleate. A 10 mg/ml or a 20 mg/ml solution of each parent drug or the fatty acid conjugate made to the same molar concentration as the parent drug was then injected into the same region as the tumour at a dose of 0.5 mg or 1 mg. The tumours were then photographed, measured and re-injected every two to three days.

[7] = 5 days, read-out: IC50 (concentration of drug which reduces cell growth by 50%)
[8] = JURKAT, addition of ethanol solution to culture media
[9] = JURKAT, coating of plates (Table 8)
[10] = JURKAT, drugs coated onto plates (Table 9)
[11] = 0.5 mg/mouse topical in ethanol, applied Day −5 (5 days prior to UV exposure), 2MED UVB, measured 24 h
[12] = 0.5 mg/mouse topical, applied Day 0 after UV exposure, 2MED UVB
[13] = 0.5 mg/mouse topical, applied Day −3 (3 days prior to UV exposure), 2MED UVB
[14] = 1 mg/mouse (1% w/v) topical, applied Day 0 after UV exposure
[15] = 1 mg/mouse (1% w/v) topical, applied Day −3

CCCCCCCCCCCCCCCC(=O)OCC(CO)(COC(=O)CCCCCCCCCCCCCCC)NC(=O)CNC(=O)CCC(=O)OC[C@H]1O[C@@H](n2cc(C)c(=O)[nH]c2=O)C[C@@H]1N=[N+]=[N-] [AZT-Suc-GTP2]
Ratio of AZT: Conjugate EC50 (HIV-I U4550; JM cell line): approx. 0.5
EC50 (HIV-I U4550; JM cells infected with HIV-I U4550, 5 days, read-out: EC50 (concentration which reduces Ag gp120 by 50% in infected cell cultures)): > 200 µM
Ratio of AZT: Conjugate EC50 (HIV-I MN; C8166 cell line): 0.5
EC50 (HIV-I MN; C8166 cells infected with HIV-I MN, 5 days, read-out: EC50 (concentration which reduces Ag gp120 by 50% in infected cell cultures)): 0.032 µM
fold more cytotoxic than AZT [1]: 25
IC50 [1, 7]: 200 µM
fold more cytotoxic than AZT [2]: 25
IC50 [2, 7]: 200 µM

CCCCCCCCCCCCCCCC(=O)OCC(CO)(CO)NC(=O)CNC(=O)CCCc1ccc(N(CCCl)CCCl)cc1 [CGTP1, Chlorambucil-Gly-Tris-Monopalmitate]
Clorambucil to CGTP1 Ratio (IC50) ([3]; JURKAT): 15 and 15.5
IC50 [3, 8]: 6.5 µM
IC50 [3, 9]: 8.6 µM
IC50 [3, 10]: 8.4 µM
IC50 ([3]; JURKAT, ethanol delivery, 64 h): 6.5 µM
cytotoxicity to JURKAT cells (in words) ([3]; comparison of conjugate, equimolar mixture and GTP1 alone): more cytotoxic to JURKAT cells than an equimolar mixture of chlorambucil and GTP1
Clorambucil to CGTP1 Ratio (IC50) ([4]; PC3): 15.0
IC50 [4]: 10.7 µM
Clorambucil to CGTP1 Ratio (IC50) (B16 mouse melanoma cells; B16): 1.6
IC50 (B16 mouse melanoma cells): 23.1 µM
fold increase in toxicity to normal cells (PBMC) versus chlorambucil ([5]; PBMC): approximately 5
Clorambucil to CGTP1 Ratio (IC50) ([5]; PBMC (1)): 6.3
IC50 ([5]; PBMC (1) = one donor, 40 h): 7.1 µM
Clorambucil to CGTP1 Ratio (IC50) ([5]; PBMC (3)): approx. 4
IC50 ([5]; PBMC (3) = three donors): 5.5 µM

CCCCCCCCCCCCCCCC(=O)OCC(CO)(COC(=O)CCCCCCCCCCCCCCC)NC(=O)CNC(=O)CCC(=O)OCC(=O)C1(O)CCC2C3CCC4=CC(=O)CCC4(C)C3C(O)CC21C (stereo not drawn) [HC-Suc-GTP2, Hydrocortisone-Suc-Gly-Tris-Dipalmitate]
Mean Net Skin Fold Thickness (UVB induced oedema; [11]): 104.2 ± 14.7 10^−2 mm
Mean Net Skin Fold Thickness (UVB induced oedema; [12]): 60.6 ± 8.6 10^−2 mm
Mean Net Skin Fold Thickness (UVB induced oedema; [13]): 94.3 ± 10.3 10^−2 mm
activity equivalent to % of the hydrocortisone activity in protecting against UVB induced oedema (UVB induced oedema; 0.5 mg/mouse, applied at Day 0, post UVB exposure): approximately 50%
Mean Net Skin Fold Thickness (UVB induced oedema; [14]): 57.5 ± 10.9
Mean Net Skin Fold Thickness (UVB induced oedema; [15]): 60.8 ± 8.8
Net Ear Swelling [6]: 29.8 10^−2 mm

C[C@]12CCC(=O)C=C1CC[C@@H]1[C@@H]2[C@@H](O)C[C@@]2(C)[C@H]1CC[C@]2(O)C(=O)CO [Hydrocortisone, hydrocortisone (cortisol or 17 hydroxy corticosterone), reference compound]
protection from erythema and oedema (UVB induced oedema; 0.5 mg/mouse topical in ethanol after 2 MED UVB, 24 h): ~100%
Mean Net Skin Fold Thickness (UVB induced oedema; [11]): 102.7 ± 12.1 10^−2 mm
Mean Net Skin Fold Thickness (UVB induced oedema; [12]): 10.4 ± 8.19 10^−2 mm
Mean Net Skin Fold Thickness (UVB induced oedema; [13]): 100.9 ± 7.3 10^−2 mm
Mean Net Skin Fold Thickness (UVB induced oedema; [14]): 7.9 ± 4.4
Mean Net Skin Fold Thickness (UVB induced oedema; [15]): 62.9 ± 4.0
Mean Net Skin Fold Thickness (UVB induced oedema; 1 mg/mouse (1% w/v) topical, applied Day −5): 108.3 ± 5.1
Net Ear Swelling [6]: 32.0 10^−2 mm

Chlorambucil [reference compound]
IC50 [3, 8]: 101 µM
IC50 [3, 9]: 219 µM
IC50 [3, 10]: 219 µM
IC50 ([3]; JURKAT, ethanol delivery, 64 h): 101 µM
IC50 [4]: 160 µM
IC50 (B16 mouse melanoma cells): 36.5 µM
IC50 ([5]; PBMC (1) = one donor, 40 h): 45 µM
IC50 ([5]; PBMC (3) = three donors): < 22 µM
difference in tumour volume from the Vehicle group (95% level) (B16 melanoma cells; 0.5 mg and 1.0 mg groups): significant difference
Mean (standard error) of B16 tumour volume adjusted for the variation in initial volume (B16 melanoma cells; 13/11/95, 0.5 mg): 3.01 (0.610)
Mean (standard error) of B16 tumour volume adjusted for the variation in initial volume (B16 melanoma cells; 15/11/95, 0.5 mg): 3.29 (0.955)
Mean (standard error) of B16 tumour volume adjusted for the variation in initial volume (B16 melanoma cells; 16/11/95, 0.5 mg): 3.46 (1.15)
Mean (standard error) of B16 tumour volume adjusted for the variation in initial volume (B16 melanoma cells; 17/11/95, 0.5 mg): 3.65 (1.38)
toxicity observed in test group (B16 melanoma cells; C57 mice, repeated injection every two to three days): High toxicity
B16 Tumour Volume (B16 melanoma cells; Day 1, drug dose 0.5 mg injected at tumour region): 0.5 mm^2 and 1.6 mm^2 and 8.2 mm^2 and 16.6 mm^2
B16 Tumour Volume (B16 melanoma cells; Day 3, drug dose 0.5 mg): 0.5 mm^2 and 0 mm^2 and 21.8 mm^2 and 38.3 mm^2
B16 Tumour Volume (B16 melanoma cells; Day 5, drug dose 0.5 mg): 0 mm^2 (2×) and 7.7 mm^2 and 108.4 mm^2
B16 Tumour Volume (B16 melanoma cells; Day 6, drug dose 0.5 mg): 0 mm^2 (2×) and 7.7 mm^2 and 125.1 mm^2
B16 Tumour Volume (B16 melanoma cells; Day 7, drug dose 0.5 mg): 0 mm^2 (2×) and 5.9 mm^2 and 174.1 mm^2
mice died (B16 melanoma cells; chlorambucil test group): 3 out of 7
